Source: patent publication US5623080A, “Fluorone and pyronin Y derivatives” (Spectra Group Limited, Inc., priority 1995, dated 1997)

What was measured:
depth of cure = test: depth of cure
Description: One of the advantages of the fluorone dye photoinitiators in this invention is the depth of the cure that is obtainable. This is in contrast to UV photoinitators that causes a "screening" effect which prevents the UV light from penetrating beyond a certain […] depth, usually several millimeters. By contrast, the fluorone dye bleaches as it photoinitiates and is concommitantly converted into a non-visible absorbing species thus allowing more visible light to penetrate which continues the cure. This cascading bleaching effect permits substantial depth of cure which can easily reach several inches.
An acrylate monomer mixture was composed of 15 parts urethane diacrylate, 20 parts TPGPA, 40 parts TMPTA and 15 parts DPHPA, and a 20 to 1 weight ratio of NPG coinitiator to DIEF or DIBF fluorone dye. For dye concentrations of 0.01, 0.05 and 0.1 weight, all the formulations cured to a depth of 3 cm in 30 seconds when exposed to a 350 watt tungsten halogen light which provides about 500 mw/cm^2 irradiance. When the irradiance was increased to about 2 watts/cm^2 cure speed was shortened to 5 seconds for the same depth.
An acrylate mixture was composed of 60% urethane diacrylate, 30% DPHPA, 10% BDDA, and 0.05 weight % of DIEF or DIBF fluorone dye with 2 weight % of DIDMA. The formulation cure to a depth greater than 1 cm in 10 seconds when exposed to a 75 watt tungsten halogen lamp which provided an irradiance of about 260 mw/cm^2.
An acrylate mixture was composed of 33% TMPTA, 33% DPHPA, 33% Epoxy acrylate, and 2% of DIDMA with either 0.01, 0.05 or 0.1 weight % of DIEF. All samples cured to a depth greater than 1 cm in 10 seconds when exposed to a 75 watt tungsten halogen.
An acrylate mixture was composed of 70% urethane diacrylate, 5% DPHPA, 25% BDDA, and 2% DIDMA with either 0.01, 0.03 or 0.1 weight % DIEF. The 0.01 and 0.03 samples cured after 2 passes through a 300 watt per inch medium pressure mercury arc lamp at a speed of 50 feet/minute to a depth greater than 3 mm. The 0.1 sample cured to a depth of greater than 1.5 mm.

[1] = double bond conversion (C=C% Conversion) by FTIR
Method: (§1) To a resin formulation consisting of 15 parts urethane diacrylate, 15 parts DPHPA, 20 parts TPGDA and 40 parts TMPTA was added DIDMA, initiator and (4-octyloxyphenyl)phenyliodonium hexafluoroantimonate (OPPI). The samples were coated to a thickness of 15 microns and exposed to a 75 W tungsten halogen dental lamp (focused through an optical fiber) at a distance of 0.75 inch at which the Light intensity was about 0.40 W/cm^2. The molar ratios are indicative of the amounts of fluorone to onium salt to amine coinitiator. The double bond conversion was determined by FTIR spectroscopy. The pencil hardness of a given test sample is measured by holding a pencil at a 45° angle to the sample and drawing across it towards the person testing it. Using the pencils in an order from softest to hardest, the first pencil that scratches the surface is assigned as the pencil hardness of the sample. The pencil hardness scale is as follows from softest to hardest: 4B, 3B, 2B, B, HB, H, 2H, 3H, 4H, 6H. For instance, if a 2H pencil is the first pencil to scratch the surface then the pencil hardness is 2H.

pencil hardness = test: pencil hardness
Method: as §1
At the extreme ends of the scale, it is impossible to determine the actual pencil hardness. […] Likewise, if the 4B pencil scratches the sample, the only assignment that can be made is <4B, unless it is a lot softer than 4B in which case a <<4B can be assigned. A pencil hardness of 4H is generally considered satisfactory. Pencil hardness data was greater than 6H after 30 seocnd exposure for all samples except for the control samples without amine (1:2:0). The controls were all less than 4B an 0.05 wt %, 0.10 wt %, and 0.15 wt %.
Photosensitive compositions were prepared from the resin formulation of Example 35 containing 1% NPG and 0.05% DIBF or 0.05% DIEF. The samples were exposed under the conditions shown in the following table and pencil hardness was measured.
Diphenyliodonium hexafluoroantimonate was added to DIBF samples.
Samples were also prepared using 1% DIDMA in addition to the fluorone for a 20:1 weight ratio.
Samples were also prepared from the same resin formulation containing 0.1% DIBF in addition to the coinitiator listed in the following Table 9 with the exposure condition and pencil hardness results shown.
Using the resin formulation of Example 36, photosensitive compositions were prepared using TIHF, DIDMA and OPPI at a concentration of 0.21% and in the molar ratios shown in Table 10 which follows. Exposure was conducted with the dental lamp at a distance of 1 inch from the sample to provide an intensity of about 0.26 W/cm^2. Molar ratios are fluorone:onium salt:amine.

[2] = double bond conversion (C=C% Conversion) by FTIR; settings: 0.05 wt %; (1:2:3); NPG; 60 sec

CCCCOc1ccc2cc3cc(I)c(=O)c(I)c-3oc2c1 [DIBF, 5,7-diiodo-3-butoxy-6-fluorone]
depth of cure (depth of cure; 10 seconds, 75 watt tungsten halogen, about 260 mw/cm^2, 0.05 weight % dye, 2 weight % DIDMA, 60% urethane diacrylate, 30% DPHPA, 10% BDDA): greater than 1 cm
depth of cure (depth of cure; 30 seconds, 350 watt tungsten halogen, about 500 mw/cm^2, dye 0.01, 0.05 and 0.1 weight, NPG 20 to 1): 3 cm
cure time for the same depth (3 cm) (depth of cure; about 2 watts/cm^2, NPG 20 to 1): 5 s
C=C% Conversion ([1]; 0.05 wt %, (1:0:60), DIDMA, 30 sec): 37%
C=C% Conversion ([1]; 0.05 wt %, (1:1:60), DIDMA, 30 sec): 37%
C=C% Conversion ([1]; 0.05 wt %, (1:2:0), DIDMA, 30 sec): 5%
C=C% Conversion ([1]; 0.05 wt %, (1:2:3), DIDMA, 30 sec): 40%
C=C% Conversion ([1]; 0.05 wt %, (1:2:3), DIDMA, 60 sec): 43%
C=C% Conversion ([1]; 0.05 wt %, (1:2:3), NPG, 30 sec): 40%
C=C% Conversion ([1]; 0.05 wt %, (1:2:5), DIDMA, 30 sec): 40%
C=C% Conversion ([1]; 0.05 wt %, (1:2:60), DIDMA, 30 sec): 43%
C=C% Conversion ([1]; 0.10 wt %, (1:2:0), DIDMA, 30 sec): 18%
C=C% Conversion ([1]; 0.10 wt %, (1:2:3), DIDMA, 30 sec): 45%
C=C% Conversion ([1]; 0.10 wt %, (1:2:3), DIDMA, 60 sec): 47%
C=C% Conversion ([1]; 0.15 wt %, (1:2:0), DIDMA, 30 sec): 19%
C=C% Conversion ([1]; 0.15 wt %, (1:2:3), DIDMA, 30 sec): 50%
C=C% Conversion ([1]; 0.15 wt %, (1:2:3), DIDMA, 60 sec): 54%
C=C% Conversion ([1]; 0.20 wt %, (1:2:3), DIDMA, 30 sec): 51%
C=C% Conversion ([1]; 0.25 wt %, (1:2:3), DIDMA, 30 sec): 50%
Pencil hardness (pencil hardness; 0.05 wt. % w/ 0.05 wt. % DPISbF6, Dental Lamp, Air, 60 sec): 2H
Pencil hardness (pencil hardness; 0.05 wt. % w/ 0.05 wt. % DPISbF6, Dental Lamp, No Air, 10 sec): > 6H
Pencil hardness (pencil hardness; 0.05 wt. % w/ 0.05 wt. % DPISbF6, Fusion (Q bulb), Air, 10 ft/min): > 6H
Pencil hardness (pencil hardness; 0.05 wt. % w/ 0.05 wt. % DPISbF6, Fusion (Q bulb), Air, 20 ft/min): > 6H
Pencil hardness (pencil hardness; 0.05 wt. %, 1% DIDMA, Dental Lamp, No Air, 10 sec): 5-6H
Pencil hardness (pencil hardness; 0.05 wt. %, 1% DIDMA, Dental Lamp, No Air, 30 sec): > 6H
Pencil hardness (pencil hardness; 0.05 wt. %, 1% DIDMA, Dental Lamp, No Air, 60 sec): > 6H
Pencil hardness (pencil hardness; 0.05 wt. %, 1% DIDMA, Fusion (Q bulb), Air, 10 ft/min): > 6H
Pencil hardness (pencil hardness; 0.05 wt. %, 1% DIDMA, Fusion (Q bulb), Air, 20 ft/min): 3H
Pencil hardness (pencil hardness; 0.05 wt. %, 1% NPG, Dental Lamp, No Air, 10 sec): 4H
Pencil hardness (pencil hardness; 0.05 wt. %, 1% NPG, Dental Lamp, No Air, 30 sec): > 6H
Pencil hardness (pencil hardness; 0.05 wt. %, 1% NPG, Dental Lamp, No Air, 60 sec): > 6H
Pencil hardness (pencil hardness; 0.05 wt. %, 1% NPG, Fusion (Q bulb), Air, 10 ft/min): > 6H
Pencil hardness (pencil hardness; 0.05 wt. %, 1% NPG, Fusion (Q bulb), Air, 20 ft/min): 4H
Pencil hardness (pencil hardness; 0.05 wt. %, 1% NPG, Overhead Proj., No Air, 60 sec): 5-6H
Pencil hardness (pencil hardness; 0.1% DIBF, 1.5% DIDMA, Dental Lamp, No Air, 10 sec): > 6H
Pencil hardness (pencil hardness; 0.1% DIBF, 1.5% DIDMA, Dental Lamp, No Air, 30 sec): > 6H
Pencil hardness (pencil hardness; 0.1% DIBF, 1.5% DIDMA, Dental Lamp, No Air, 60 sec): > 6 h
Pencil hardness (pencil hardness; 0.1% DIBF, 1.5% DIDMA, Fusion (Q bulb), Air, 10 ft/min): > 6H
Pencil hardness (pencil hardness; 0.1% DIBF, 1.5% DIDMA, Fusion (Q bulb), Air, 20 ft/min): 5-6H
Pencil hardness (pencil hardness; 0.1% DIBF, 1.5% NPG, Dental Lamp, No Air, 10 sec): 5-6H
Pencil hardness (pencil hardness; 0.1% DIBF, 1.5% NPG, Dental Lamp, No Air, 30 sec): > 6H
Pencil hardness (pencil hardness; 0.1% DIBF, 1.5% NPG, Dental Lamp, No Air, 60 sec): > 6 h
Pencil hardness (pencil hardness; 0.1% DIBF, 1.5% NPG, Fusion (Q bulb), Air, 10 ft/min): > 6H
Pencil hardness (pencil hardness; 0.1% DIBF, 1.5% NPG, Fusion (Q bulb), Air, 20 ft/min): 5-6H
Pencil hardness (pencil hardness; 0.1% DIBF, 2% NPG, Dental Lamp, No Air, 10 sec): 5-6H
Pencil hardness (pencil hardness; 0.1% DIBF, 2% NPG, Dental Lamp, No Air, 30 sec): > 6H
Pencil hardness (pencil hardness; 0.1% DIBF, 2% NPG, Dental Lamp, No Air, 60 sec): > 6H
Pencil hardness (pencil hardness; 0.1% DIBF, 2% NPG, Fusion (Q bulb), Air, 10 ft/min): > 6H
Pencil hardness (pencil hardness; 0.1% DIBF, 2% NPG, Fusion (Q bulb), Air, 20 ft/min): 5-6H
Pencil hardness (pencil hardness; Table 11, 0.05%, (1:0:60), DIDMA, 10 sec.): 4H
Pencil hardness (pencil hardness; Table 11, 0.05%, (1:0:60), DIDMA, 60 sec.): > 6H
Pencil hardness (pencil hardness; Table 11, 0.05%, (1:1:60), DIDMA, 10 sec.): > 6H
Pencil hardness (pencil hardness; Table 11, 0.05%, (1:2:3), DIDMA, 60 sec.): > 6H
Pencil hardness (pencil hardness; Table 11, 0.05%, (1:2:3), NPG, 60 sec.): > 6H
Pencil hardness (pencil hardness; Table 11, 0.10%, (1:2:3), DIDMA, 60 sec.): > 6H
Pencil hardness (pencil hardness; Table 11, 0.15%, (1:2:3), DIDMA, 60 sec.): > 6H
C=C% Conversion [2]: 43%
